Measurements from the NIST ThermoML archive (doi:10.1021/je101086r).
± gives the expanded uncertainty stated by the source.

Experiment: xn = mol fraction of the nth substance listed
Settings: Pycnometric method

CC1COC(=O)O1 (configuration not stated) [4-methyl-1,3-dioxolan-2-one] + O=C=O
Settings	mass density [kg/m3]
313 K, 2000 kPa, Gas, x2 = 0.9953	47.6 ± 16
313 K, 2000 kPa, Liquid, x2 = 0.2593	1170 ± 44
313 K, 3000 kPa, Gas, x2 = 0.9895	73 ± 16
313 K, 3000 kPa, Liquid, x2 = 0.3384	1170 ± 44
313 K, 4000 kPa, Gas, x2 = 0.9864	97.2 ± 16
313 K, 4000 kPa, Liquid, x2 = 0.4022	1160 ± 44
313 K, 5000 kPa, Gas, x2 = 0.9894	136.8 ± 16
313 K, 5000 kPa, Liquid, x2 = 0.4548	1164.8 ± 44
313 K, 6000 kPa, Gas, x2 = 0.9963	170.5 ± 16
313 K, 6000 kPa, Liquid, x2 = 0.4919	1156 ± 44
313 K, 7000 kPa, Gas, x2 = 0.99	224.7 ± 16
313 K, 7000 kPa, Liquid, x2 = 0.542	1141.4 ± 43
313 K, 8000 kPa, Gas, x2 = 0.99	244 ± 16
313 K, 8000 kPa, Liquid, x2 = 0.5706	1129.7 ± 43
313 K, 9000 kPa, Gas, x2 = 0.9907	276.7 ± 16
313 K, 9000 kPa, Liquid, x2 = 0.6169	1109.2 ± 42
313 K, 10000 kPa, Gas, x2 = 0.9841	339.9 ± 18
313 K, 10000 kPa, Liquid, x2 = 0.6579	1089.3 ± 41
313 K, 11000 kPa, Gas, x2 = 0.9866	366.2 ± 16
313 K, 11000 kPa, Liquid, x2 = 0.6915	1073 ± 41
313 K, 12000 kPa, Gas, x2 = 0.9694	390.8 ± 16
313 K, 12000 kPa, Liquid, x2 = 0.7279	1046.6 ± 49
333 K, 3000 kPa, Gas, x2 = 0.9942	52 ± 16
333 K, 3000 kPa, Liquid, x2 = 0.2425	1090.7 ± 42
333 K, 4000 kPa, Gas, x2 = 0.9968	77.8 ± 18
333 K, 4000 kPa, Liquid, x2 = 0.2787	1096.7 ± 42
333 K, 5000 kPa, Gas, x2 = 0.9922	100.2 ± 18
333 K, 5000 kPa, Liquid, x2 = 0.3272	1106.7 ± 42
333 K, 6000 kPa, Gas, x2 = 0.9862	116.8 ± 16
333 K, 6000 kPa, Liquid, x2 = 0.3723	1105.7 ± 42
333 K, 7000 kPa, Gas, x2 = 0.9885	147.9 ± 17
333 K, 7000 kPa, Liquid, x2 = 0.4079	1109.2 ± 42
333 K, 8000 kPa, Gas, x2 = 0.9898	174.5 ± 19
333 K, 8000 kPa, Liquid, x2 = 0.4512	1110.2 ± 42
333 K, 9000 kPa, Gas, x2 = 0.984	199.6 ± 16
333 K, 9000 kPa, Liquid, x2 = 0.4846	1102.2 ± 42
333 K, 10000 kPa, Gas, x2 = 0.9855	230.2 ± 19
333 K, 10000 kPa, Liquid, x2 = 0.5244	1091.2 ± 42
333 K, 11000 kPa, Gas, x2 = 0.9812	271.3 ± 17
333 K, 11000 kPa, Liquid, x2 = 0.5725	1077.1 ± 41
333 K, 12000 kPa, Gas, x2 = 0.9888	326.5 ± 17
333 K, 12000 kPa, Liquid, x2 = 0.6065	1061.1 ± 40
333 K, 13000 kPa, Gas, x2 = 0.9883	411.2 ± 18
333 K, 13000 kPa, Liquid, x2 = 0.6246	1052.5 ± 40
353 K, 1000 kPa, Gas, x2 = 0.952	18.6
353 K, 1000 kPa, Liquid, x2 = 0.081	1011 ± 38
353 K, 2000 kPa, Gas, x2 = 0.9663	32.2
353 K, 2000 kPa, Liquid, x2 = 0.115	1024.5 ± 39
353 K, 3000 kPa, Gas, x2 = 0.9679	50.9 ± 16
353 K, 3000 kPa, Liquid, x2 = 0.1518	1030 ± 39
353 K, 4000 kPa, Gas, x2 = 0.9679	68.5 ± 16
353 K, 4000 kPa, Liquid, x2 = 0.196	1040.8 ± 40
353 K, 5000 kPa, Gas, x2 = 0.9591	84.4 ± 16
353 K, 5000 kPa, Liquid, x2 = 0.2317	1044.3 ± 40
353 K, 6000 kPa, Gas, x2 = 0.9866	100 ± 16
353 K, 6000 kPa, Liquid, x2 = 0.2852	1054.8 ± 40
353 K, 7000 kPa, Gas, x2 = 0.9836	115 ± 16
353 K, 7000 kPa, Liquid, x2 = 0.3205	1062.4 ± 40
353 K, 8000 kPa, Gas, x2 = 0.9922	164.5 ± 16
353 K, 8000 kPa, Liquid, x2 = 0.351	1050 ± 40
353 K, 9000 kPa, Gas, x2 = 0.9891	206 ± 16
353 K, 9000 kPa, Liquid, x2 = 0.3881	1048.4 ± 40
353 K, 10000 kPa, Gas, x2 = 0.9709	224.7 ± 17
353 K, 10000 kPa, Liquid, x2 = 0.4112	1035.5 ± 39
353 K, 11000 kPa, Gas, x2 = 0.9779	250 ± 16
353 K, 11000 kPa, Liquid, x2 = 0.4485	997.5 ± 38
353 K, 12000 kPa, Gas, x2 = 0.9719	300 ± 16
353 K, 12000 kPa, Liquid, x2 = 0.492	970.4 ± 37
353 K, 13000 kPa, Gas, x2 = 0.9842	320 ± 16
353 K, 13000 kPa, Liquid, x2 = 0.5225	951.1 ± 36
373 K, 3000 kPa, Gas, x2 = 0.9747	40 ± 16
373 K, 3000 kPa, Liquid, x2 = 0.1384	1000 ± 38
373 K, 4000 kPa, Gas, x2 = 0.9779	60.5 ± 16
373 K, 4000 kPa, Liquid, x2 = 0.1638	1004.9 ± 38
373 K, 5000 kPa, Gas, x2 = 0.98	82.7 ± 16
373 K, 5000 kPa, Liquid, x2 = 0.2031	1005.4 ± 38
373 K, 6000 kPa, Gas, x2 = 0.9802	95.9 ± 16
373 K, 6000 kPa, Liquid, x2 = 0.2367	1011.5 ± 39
373 K, 7000 kPa, Gas, x2 = 0.9784	125.9 ± 16
373 K, 7000 kPa, Liquid, x2 = 0.2692	1000 ± 38
373 K, 8000 kPa, Gas, x2 = 0.9795	149.8 ± 16
373 K, 8000 kPa, Liquid, x2 = 0.2948	988.9 ± 38
373 K, 9000 kPa, Gas, x2 = 0.9782	158 ± 18
373 K, 9000 kPa, Liquid, x2 = 0.3268	980.9 ± 37
373 K, 10000 kPa, Gas, x2 = 0.9847	181 ± 16
373 K, 10000 kPa, Liquid, x2 = 0.3403	960.8 ± 36
373 K, 11000 kPa, Gas, x2 = 0.9806	226.8 ± 21
373 K, 11000 kPa, Liquid, x2 = 0.3805	940.7 ± 36
373 K, 12000 kPa, Gas, x2 = 0.9848	241.7 ± 18
373 K, 12000 kPa, Liquid, x2 = 0.39	935.1 ± 36
373 K, 13000 kPa, Gas, x2 = 0.9844	264.9 ± 16
373 K, 13000 kPa, Liquid, x2 = 0.4136	931.2 ± 35

CCCC(=O)OCC [ethyl butanoate] + O=C=O
Settings	mass density [kg/m3]
313 K, 2000 kPa, Gas, x2 = 0.9978	39.4 ± 16
313 K, 2000 kPa, Liquid, x2 = 0.3795	919.1 ± 35
313 K, 3000 kPa, Gas, x2 = 0.9926	61.3 ± 17
313 K, 3000 kPa, Liquid, x2 = 0.4919	901 ± 34
313 K, 4000 kPa, Gas, x2 = 0.9951	96.8 ± 16
313 K, 4000 kPa, Liquid, x2 = 0.6053	867.6 ± 33
313 K, 5000 kPa, Gas, x2 = 0.9938	141.2 ± 16
313 K, 5000 kPa, Liquid, x2 = 0.7204	841.3 ± 32
313 K, 6000 kPa, Gas, x2 = 0.9941	222.9 ± 17
313 K, 6000 kPa, Liquid, x2 = 0.8124	813.8 ± 31
313 K, 7000 kPa, Gas, x2 = 0.9888	300 ± 17
313 K, 7000 kPa, Liquid, x2 = 0.8876	789.8 ± 30
313 K, 8000 kPa, Gas, x2 = 0.9616	450 ± 18
313 K, 8000 kPa, Liquid, x2 = 0.9495	744.8 ± 28
333 K, 2000 kPa, Gas, x2 = 0.967	38.2 ± 16
333 K, 2000 kPa, Liquid, x2 = 0.3088	801.5 ± 30
333 K, 3000 kPa, Gas, x2 = 0.9751	57 ± 16
333 K, 3000 kPa, Liquid, x2 = 0.3978	806.9 ± 31
333 K, 4000 kPa, Gas, x2 = 0.9726	82.4 ± 16
333 K, 4000 kPa, Liquid, x2 = 0.491	804.4 ± 31
333 K, 5000 kPa, Gas, x2 = 0.9713	120.5 ± 16
333 K, 5000 kPa, Liquid, x2 = 0.5707	786.8 ± 30
333 K, 6000 kPa, Gas, x2 = 0.9709	164.2 ± 16
333 K, 6000 kPa, Liquid, x2 = 0.6514	781.3 ± 30
333 K, 7000 kPa, Gas, x2 = 0.9706	258.1 ± 16
333 K, 7000 kPa, Liquid, x2 = 0.7285	752.2 ± 29
333 K, 8000 kPa, Gas, x2 = 0.9716	298.4 ± 17
333 K, 8000 kPa, Liquid, x2 = 0.8105	726.6 ± 28
333 K, 9000 kPa, Gas, x2 = 0.9541	375.1 ± 16
333 K, 9000 kPa, Liquid, x2 = 0.8711	692 ± 26
333 K, 10000 kPa, Gas, x2 = 0.92	426.5 ± 16
333 K, 10000 kPa, Liquid, x2 = 0.9039	670 ± 26
353 K, 2000 kPa, Gas, x2 = 0.9121	34.5 ± 16
353 K, 2000 kPa, Liquid, x2 = 0.2195	762.9 ± 29
353 K, 3000 kPa, Gas, x2 = 0.9126	46.2 ± 16
353 K, 3000 kPa, Liquid, x2 = 0.2919	764.7 ± 29
353 K, 4000 kPa, Gas, x2 = 0.9151	68.5 ± 16
353 K, 4000 kPa, Liquid, x2 = 0.356	765.8 ± 29
353 K, 5000 kPa, Gas, x2 = 0.9166	106.5 ± 17
353 K, 5000 kPa, Liquid, x2 = 0.4259	758.8 ± 29
353 K, 6000 kPa, Gas, x2 = 0.9166	150.4 ± 17
353 K, 6000 kPa, Liquid, x2 = 0.4863	753 ± 29
353 K, 7000 kPa, Gas, x2 = 0.9189	215.9 ± 16
353 K, 7000 kPa, Liquid, x2 = 0.5364	734.8 ± 28
353 K, 8000 kPa, Gas, x2 = 0.9142	258 ± 16
353 K, 8000 kPa, Liquid, x2 = 0.5983	719.6 ± 28
353 K, 9000 kPa, Gas, x2 = 0.9127	308.3 ± 16
353 K, 9000 kPa, Liquid, x2 = 0.6685	685.1 ± 29
353 K, 10000 kPa, Gas, x2 = 0.91	331.7 ± 16
353 K, 10000 kPa, Liquid, x2 = 0.7399	655.8 ± 26
353 K, 11000 kPa, Gas, x2 = 0.89	375 ± 16
353 K, 11000 kPa, Liquid, x2 = 0.8222	655.2 ± 25
373 K, 2000 kPa, Gas, x2 = 0.867	30.6
373 K, 2000 kPa, Liquid, x2 = 0.18	627.3 ± 24
373 K, 3000 kPa, Gas, x2 = 0.8751	45.1 ± 16
373 K, 3000 kPa, Liquid, x2 = 0.2406	665.4 ± 27
373 K, 4000 kPa, Gas, x2 = 0.8726	64.7 ± 27
373 K, 4000 kPa, Liquid, x2 = 0.3086	675.5 ± 26
373 K, 5000 kPa, Gas, x2 = 0.8713	96.5 ± 17
373 K, 5000 kPa, Liquid, x2 = 0.3859	686.5 ± 26
373 K, 6000 kPa, Gas, x2 = 0.8709	126.4
373 K, 6000 kPa, Liquid, x2 = 0.4129	675 ± 26
373 K, 7000 kPa, Gas, x2 = 0.8706	171 ± 16
373 K, 7000 kPa, Liquid, x2 = 0.4862	659.4 ± 25
373 K, 8000 kPa, Gas, x2 = 0.8716	201.1 ± 16
373 K, 8000 kPa, Liquid, x2 = 0.5222	647.4 ± 25
373 K, 9000 kPa, Gas, x2 = 0.8766	233.2 ± 16
373 K, 9000 kPa, Liquid, x2 = 0.5764	639.9 ± 24
373 K, 10000 kPa, Gas, x2 = 0.856	259.8 ± 16
373 K, 10000 kPa, Liquid, x2 = 0.6256	628.8 ± 24
